The values that follow come from article PMC8268581, “Identification of 3,4-Dihydro-2H,6H-pyrimido[1,2-c][1,3]benzothiazin-6-imine Derivatives as Novel Selective Inhibitors of Plasmodium falciparum Dihydroorotate Dehydrogenase” (International Journal of Molecular Sciences, 2021).

Data set [1] can be described thus: Cytotoxicity assay, DLD-1 (Cell Counting Kit-8). It is filed as cell-based. The following applies: DLD-1 human colorectal adenocarcinoma cells. How it is done: (§1) Human dermal fibroblast cells (HDF, Zenbio, Inc., Durham, NC, USA) were cultured in Dulbecco’s Modified Eagle Medium/Nutrient Mixture F-12 medium (DMEM/F12, Gibco), human pancreatic carcinoma cells (PANC-1, DS Pharma Biomedical, Co., Ltd.) were cultured in DMEM (Gibco), and human colorectal adenocarcinoma cells (DLD-1, Taiho Pharmaceutical Company) were cultured in RPMI-1640 medium (FUJIFILM Wako Pure Chemicals). The culture mediums were supplemented with 10% (v/v) heat-inactivated fetal bovine serum (Gibco) and the cells were maintained at 37 °C under 5% CO2.
(§2) HDF, PANC-1, and DLD-1 were seeded at 2.5 × 10^4 cells/well on a 96-well plate and incubated at 37 °C under 5% CO2 overnight. The cells were then washed with PBS and the medium was replaced with 99 µL of fresh media. Then, 1 µL of the compounds or DMSO was added to the respective wells. As controls, wells containing 1% (v/v) DMSO in column 1 and wells containing only the culture medium in column 12 were used as the negative and positive controls, respectively. After 48 h of incubation, the cells were washed with PBS, and 99 µL of fresh media was replaced, followed by the addition of 10 µL of Cell Counting Kit-8 (Dojindo) to each well. After 3 h of incubation, the absorbance was measured at 450 nm using a SpectraMax®® Paradigm®® Multi-Mode microplate Reader. The calculation of cell viability in the test well was based on the absorbance of control wells according to the manufacturer’s protocol. The mean of quadruplet values was used to calculate the CC50 using GraphPad Prism 8.0 software.

In data set [2] the target is mammalian mitochondrial complexes II–III (Bos taurus, UniProt P00157+P35720+Q3T189+Q95123). Put plainly: succinate-cytochrome c reductase (complexes II–III) activity assay. Conditions: bovine heart mitochondria, range tested 0.0007 to 22.7 µM; read-out: IC50 Mammalian Mitochondrial CII–III. It is filed as biochemical. How it is done:
(§3) Bovine heart mitochondria were prepared as previously described. The NADH-cytochrome c reductase (complexes I–III) and succinate-cytochrome c reductase (complexes II–III) activities were assayed in 384-well plates following an established protocol with small modifications. Complex I–III activity was assayed in a reaction mix containing 50 mM phosphate buffer pH 7.4, 2 mM KCN, 200 µM cytochrome c (cytochrome c from horse heart, Nacalai tesque), and 15 µg/mL mitochondria. Plates containing 1 µL serial dilutions of PfDHODH inhibitors were prepared and mixed with 38 µL of the reaction mix, as described above. The reaction was started by the addition of 5 µL of 2.6 mM NADH, and the assay was performed as described for PfDHODH, but at 550 nm and with 15 min of incubation. Complex II–III activity was assayed similarly to complex I–III activity but with 100 µM cytochrome c and 25 µg/mL mitochondria, and the reaction was started by 10 mM succinate. For both assays, DMSO and 5 µM ascochlorin were used as negative and positive controls, respectively. Assays were performed in triplicate.

In data set [3] the target is T1, PfDHODH (Plasmodium falciparum, UniProt Q08210).
T1 construct: encoding amino acid residues 158 to 569 fused to a His6-SUMO tag in its N-terminus; His6-SUMO (N, cleaved yes); made in house; host or cells: E. coli BL21 Star (DE3), pETSUMO/PfDHODH
Put plainly: PfDHODH inhibition assay (DCIP end-point, 384-well). The following applies: recombinant tag-free PfDHODH, 20 min, serial dilutions 0.0007-22.7 µM; read-out: IC50 DHODH Pf. It is filed as biochemical. How it is done: The screening of 40,400 compounds was conducted in 384-well plates by adapting the end-point assay reported before. First, 1 µL of 200 µM compound was transferred into 384-well plates using a Benchtop Multi-Pipetter EDR-384SR (Biotech Co., Ltd., Tokyo, Japan). […] Next, 38 µL of assay mix (100 mM HEPES-NaOH pH 7.5, 5% (v/v) glycerol, 150 mM NaCl, 0.05% (v/v) Triton X-100, 15 µM decylubiquinone (dUQ, Sigma), 120 µM 2,6-dichlorophenolindophenol (DCIP, Sigma), and 20 nM PfDHODH) were dispensed into all wells and mixed at 600 rpm for 1 min by a MixMate®® (Eppendorf). The reaction was started by the addition of 5 µL of 1.8 mM L-DHO (Sigma) as the substrate and mixed as described above for 20 s. The absorbance at 600 nm was recorded using a SpectraMax®® Paradigm®® Multi-Mode Microplate Reader (Molecular Devices) before (t0) and after 20 min (t20) incubation at room temperature. The readings at t0 were subtracted from t20, and PfDHODH inhibition was calculated as the inhibition relative to the negative and positive controls in a single-point assay. Hits were defined as compounds inhibiting more than 50% of PfDHODH activity at 4.5 µM. The quality of the screening system was evaluated by calculating statistical parameters: Z′-factor, S/N, S/B, SW, and CV, as previously reported. The IC50 values of the hit compounds were determined using the same assay system containing serial dilutions of each compound in triplicates (22.7, 6.8, 2.27, 0.68, 0.227, 0.068, 0.023, 0.007, 0.002, 0.0007 µM) using GraphPad Prism 8.0 software (GraphPad Software Inc., San Diego, CA, USA).

Data set [4] can be described thus: Cytotoxicity assay, HDF (Cell Counting Kit-8). It is filed as cell-based. Conditions: human dermal fibroblast (HDF) cells, normal human dermal fibroblasts. How it is done: as §1, §2
(Tetrazolium assays rely on reduction of a dye to a coloured formazan, in cell work by metabolically active cells.)

The target in data set [5] is mammalian mitochondrial complexes I–III (Bos taurus, UniProt P00157+P03887+P17694+P42026). Put plainly: NADH-cytochrome c reductase (complexes I–III) activity assay. The data set is classed as biochemical. The following applies: bovine heart mitochondria, range tested 0.0007 to 22.7 µM; read-out: IC50 Mammalian Mitochondrial CI–III. The protocol:
as §3

Data set [6] deals with P. falciparum 3D7. Put plainly: In vitro antimalarial assay (PfLDH/diaphorase). The data set is classed as cell-based. Conditions: Plasmodium falciparum, growth inhibition, 72 h, 0.0003 to 10 µM, read-out: EC50 Pf3D7. How it is done:
This assay was conducted using human red blood cells (RBC) following the guidelines of the ethics committee of Nagasaki University (permission no. 19). Human RBC was obtained from the Japanese Red Cross Society. The P. falciparum 3D7 strain was cultured in 2% hematocrit type O human RBC in RPMI-1640 medium (Gibco) supplemented with 23.8 mM sodium bicarbonate (Wako), 50 mg/L hypoxanthine (Wako), 25 mg/L gentamycin (Sigma), and 0.5% (w/v) AlbuMAX®® II (Gibco) under a 5% O2, 5% CO2, and 90% N2 atmosphere at 37 °C. Parasites were synchronized with 5% (w/v) D-sorbitol (Wako).
Synchronized ring-stage parasites at 0.3% parasitemia and 2% hematocrit were cultured in a 384-well plate at 25 µL with test compounds at a final concentration in the range of 0.0003 to 10 µM with a fixed DMSO concentration of 0.4% (v/v). Parasite growth was monitored by the diaphorase-coupled P. falciparum lactate dehydrogenase (PfLDH) assay, as previously described. After 72 h, 70 µL of the assay solution (150 mM lithium L-lactate (Wako), 0.05 mg/mL 3-acetylpyridine adenine dinucleotide (Oriental Yeast Co., Ltd., Tokyo, Japan), 0.2 mg/mL nitro blue tetrazolium (Wako), 1 unit/mL diaphorase, and 100 mM Tris-HCl pH 8.0) were mixed with the parasite culture and incubated at room temperature for 40 min, and the generated nitro blue formazan was measured at 650 nm using a SpectraMax®® Paradigm®® Multi-Mode Microplate Reader. […] The EC50 was calculated using GraphPad Prism 8.0 software from the mean of quadruplets values.

Data set [7] deals with T2, HsDHODH (Homo sapiens, UniProt Q02127).
T2 construct: made in house
Put plainly: HsDHODH counter-assay. The data set is classed as biochemical. The following applies: purified recombinant HsDHODH, tested at 4.5 µM; read-out: IC50 DHODH Hs. The protocol:
Selected hit compounds from PfDHODH screening were tested for potential inhibition against HsDHODH at 4.5 µM. The HsDHODH used in this study was purified as previously reported. The HsDHODH assay was performed similarly to that for PfDHODH, but in an assay mix consisting of 50 mM Tris-HCl pH 8.0, 0.1% (v/v) Triton X-100, 2 mM potassium cyanide (KCN, Wako), 60 µM dUQ, and 120 µM DCIP, with the reaction started by the addition of 200 µM L-DHO (final concentration) in triplicate. For this assay, DMSO was used as a negative control and 10 µM of lapachol was used as a positive control (100% inhibition). The relative inhibition was calculated as described above.

Data set [8] can be described thus: Cytotoxicity assay, PANC-1 (Cell Counting Kit-8). The following applies: PANC-1 human pancreatic carcinoma cells. It is filed as cell-based. How it is done:
as §1, §2

T2 sequence (Q02127 whole entry): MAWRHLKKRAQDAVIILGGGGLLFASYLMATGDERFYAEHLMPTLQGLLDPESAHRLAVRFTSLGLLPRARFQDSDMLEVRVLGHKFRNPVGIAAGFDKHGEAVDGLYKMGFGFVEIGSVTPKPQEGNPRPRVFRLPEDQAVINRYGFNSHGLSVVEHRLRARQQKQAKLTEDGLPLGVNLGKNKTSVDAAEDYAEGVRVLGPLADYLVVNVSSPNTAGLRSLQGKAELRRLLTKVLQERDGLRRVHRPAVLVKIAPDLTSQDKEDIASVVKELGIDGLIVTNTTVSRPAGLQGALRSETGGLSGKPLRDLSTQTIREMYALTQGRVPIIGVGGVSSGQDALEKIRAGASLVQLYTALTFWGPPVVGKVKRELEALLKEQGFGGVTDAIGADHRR
T1 sequence (Q08210 158-569): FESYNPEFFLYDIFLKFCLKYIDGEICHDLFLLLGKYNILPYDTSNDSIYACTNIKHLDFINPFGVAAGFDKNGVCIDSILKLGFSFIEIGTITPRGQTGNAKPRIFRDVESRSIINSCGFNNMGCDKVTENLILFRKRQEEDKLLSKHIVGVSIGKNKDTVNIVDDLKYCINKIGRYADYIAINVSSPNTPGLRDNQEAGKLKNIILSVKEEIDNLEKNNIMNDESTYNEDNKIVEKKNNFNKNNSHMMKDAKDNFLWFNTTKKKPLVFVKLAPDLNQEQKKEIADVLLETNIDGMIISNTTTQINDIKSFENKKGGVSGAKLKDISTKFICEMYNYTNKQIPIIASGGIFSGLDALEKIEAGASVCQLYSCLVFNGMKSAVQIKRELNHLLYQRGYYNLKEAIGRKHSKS

The term EC50 denotes the concentration that produces a half-maximal response. The IC50 is the point on the concentration scale where inhibition reaches its midpoint. `Oc1cccc(-c2ccc3c(c2)SN2CCCN=C32)c1` [Compound 41]: the EC50 at 48 h in data set [1], in data set [4] and in data set [8] was > 10 µM in each case. Further, the IC50 in data set [2] was > 22.7 µM; in data set [3], 1.44 ± 0.05 µM; in data set [5], > 22.7 µM; in data set [7], > 4.5 µM. For the same compound, the EC50 in data set [6] is > 10 µM.

Regarding `Oc1ccc(-c2ccc3c(c2)SN2CCCN=C32)cc1` [Compound 38], the EC50 at 48 h in data set [1], in data set [4] and in data set [8] was > 10 µM in each case. The IC50 in data set [2] is > 22.7 µM; in data set [3] it was 1.81 ± 0.01 µM; in data set [5], > 22.7 µM; in data set [7], > 4.5 µM. Further, in data set [6], the EC50 was > 10 µM.

Regarding `N=C1Sc2ccc(-c3ccccc3)cc2C2=NCCCN12` [Compound 9], the EC50 at 48 h in data set [1], in data set [4] and in data set [8] was > 10 µM each time. In addition, the IC50 is > 22.7 µM in data set [2], 0.76 ± 0.08 µM in data set [3], > 22.7 µM in data set [5] and > 4.5 µM in data set [7]. In addition, in data set [6], the EC50 is > 10 µM.

Consider `c1cncc(-c2ccc3c(c2)SN2CCCN=C32)c1` [Compound 35], for which the EC50 at 48 h in data set [1], in data set [4] and in data set [8] was > 10 µM throughout. Moreover, the IC50 in data set [2] is > 22.7 µM; in data set [3], 1.48 ± 0.07 µM; in data set [5], > 22.7 µM; in data set [7], > 4.5 µM. In addition, the EC50 in data set [6] is > 10 µM.

As for `N=C1Sc2cc(-c3ccc(C(N)=O)cc3)ccc2C2=NCCCN12` [Compound 16], the EC50 at 48 h in data set [1], in data set [4] and in data set [8] was > 10 µM each time. Moreover, the IC50 in data set [2] was > 22.7 µM; in data set [3], 1.82 ± 0.08 µM; in data set [5] it was > 22.7 µM; in data set [7] it was > 4.5 µM. In addition, in data set [6], the EC50 was > 10 µM.

Regarding `CC(=O)Nc1cccc(-c2ccc3c(c2)SC(=N)N2CCCN=C32)c1` [Compound 23], the EC50 at 48 h in data set [1], in data set [4] and in data set [8] was > 10 µM each time. Besides, the IC50 in data set [2] is > 22.7 µM; in data set [3], 1.85 ± 0.19 µM; in data set [5], > 22.7 µM; in data set [7] it was > 4.5 µM. Moreover, the concentration giving a half-maximal response (EC50) in data set [6] is > 10 µM.

Regarding `FC(F)(F)c1ccc2c(c1)SN1CCCN=C21` [Compound 29], the EC50 at 48 h in data set [1], in data set [4] and in data set [8] was > 10 µM throughout. Also, the IC50 in data set [2] was > 22.7 µM; in data set [3] it was 9.71 ± 0.29 µM; in data set [5], > 22.7 µM; in data set [7], > 4.5 µM. Further, in data set [6], the EC50 was > 10 µM.

In the case of `CC(=O)NCCCCCOc1cccc(-c2ccc3c(c2)SC(=N)N2CCCN=C32)c1` [Compound 26], the EC50 at 48 h in data set [1], in data set [4] and in data set [8] was > 10 µM each time. The IC50 was > 22.7 µM in data set [2], 3.49 ± 0.21 µM in data set [3], > 22.7 µM in data set [5] and > 4.5 µM in data set [7]. Moreover, the EC50 in data set [6] was > 10 µM.

`N=C1Sc2cc3ccccc3cc2C2=NCCCN12` [Compound 11, 2,3,4,6-tetrahydro-7-thia-1,5-diazatetraphen-6-imine]: the EC50 at 48 h in data set [1], in data set [4] and in data set [8] was > 10 µM in each case. Also, the IC50 in data set [2] is > 22.7 µM; in data set [3] it was 6.42 ± 0.09 µM; in data set [5], > 22.7 µM; in data set [7] it was > 4.5 µM. Besides, in data set [6], the EC50 is > 10 µM.

As to `CS(=O)(=O)Nc1cccc(-c2ccc3c(c2)SC(=N)N2CCCN=C32)c1` [Compound 24], the EC50 at 48 h in data set [1], in data set [4] and in data set [8] was > 10 µM throughout. Besides, the IC50 in data set [2] was > 22.7 µM; in data set [3], 1.94 ± 0.07 µM; in data set [5] it was > 22.7 µM; in data set [7] it was > 4.5 µM. In addition, in data set [6], the EC50 is > 10 µM.
